Patent US6537948B1, “Uracil compounds and use thereof” (Sumitomo Chemical Company, Limited, priority 2000, dated 2003)

Tests used:
Type in all cases: in vivo
[1] = tested on: velvetleaf (Abutilon theophrasti); assay: Test Example 2: soil surface treatment of field; details: soil surface spray, dosage 500 g/ha, 19 days after application
Excerpt: (§1) A cylindrical plastic pot having a diameter of 10 cm and a depth of 10 cm was filled with soil and then seeded with ivyleaf morningglory (Ipomoea hederacea) and velvetleaf (Abutilon theophrasti). Then, each of the compounds 1-2, 1-42, 1-48, 2-2, 2-7, 2-42, 2-45, 3-2, 3-12, 4-7, 4-85, 5-12-R, 5-12-S, 5-17, 6-2, 7-2, 7-6, 7-8, 7-12, 7-48, 7-50, 7-84, 7-118, 7-119, 7-125, 9-7, 9-27 and 9-45 was formulated into an emulsifiable concentrate according to Formulation Example 2 and then diluted to the prescribed amount with water, and the dilution was uniformly sprayed over the surface of the soil with a sprayer at a rate of 1000 liters per hectare. After the application, the test plants were grown in the greenhouse for 19 days, and the herbicidal activity was examined.

[2] = tested on: ivyleaf morningglory (Ipomoea hederacea); assay: Test Example 2: soil surface treatment of field; details: soil surface spray, dosage 500 g/ha, 19 days after application
Excerpt: as §1

[3] = tested on: velvetleaf (Abutilon theophrasti); assay: Test Example 1: foliar treatment of field; details: foliar spray, dosage 125 g/ha, 16 days after application
Procedure: (§2) A cylindrical plastic pot having a diameter of 10 cm and a depth of 10 cm was filled with soil and then seeded with ivyleaf morningglory (Ipomoea hederacea) and velvetleaf (Abutilon theophrasti). These test plants were grown in a greenhouse for 10 days. Then, each of compounds 1-2, 1-42, 1-45, 1-48, 2-2, 2-7, 2-42, 2-45, 3-2, 3-12, 4-7, 4-85, 5-12-R, 5-12-S, 5-17, 6-2, 7-2, 7-6, 7-8, 7-12, 7-48, 7-50, 7-84, 7-118, 7-119, 7-125, 9-7, 9-27 and 9-45 was formulated into an emulsifiable concentrate according to Formulation Example 2 and then diluted to the prescribed amount with water containing a spreading agent and the dilution was uniformly sprayed over the foliage of the test plants with a sprayer at a rate of 1000 liters per hectare. After the application, the test plants were grown in the greenhouse for 16 days, and the herbicidal activity was determined.

[4] = tested on: ivyleaf morningglory (Ipomoea hederacea); assay: Test Example 1: foliar treatment of field; details: foliar spray, dosage 125 g/ha, 16 days after application
Procedure: as §2

COC(=O)C(C)Oc1ccnc(Oc2cc(-n3c(=O)cc(C(F)(F)F)n(C)c3=O)c(F)cc2Cl)n1 (stereo not drawn) [Compound 1-2, methyl 2-([2-{2-chloro-4-fluoro-5-[3-methyl-2,6-dioxo-4-(trifluoromethyl)-1,2,3,6-tetrahydropyrimidin-1-yl]phenoxy}pyrimidin-4-yl]oxy)propionate]
completely controlled: growth of velvetleaf (herbicidal activity) [1] | growth of ivyleaf morningglory (herbicidal activity) [2] | growth of velvetleaf (herbicidal activity) [3] | growth of ivyleaf morningglory (herbicidal activity) [4]

COC(=O)[C@H](C)Oc1n[nH]c(C)c1Oc1cc(-n2c(=O)cc(C(F)(F)F)n(C)c2=O)c(F)cc1Cl [Compound 5-12-S, (S)-3-{1-(methoxycarbonyl)ethoxy}-4-{2-chloro-4-fluoro-5-[3-methyl-2,6-dioxo-4-(trifluoromethyl)-1,2,3,6-tetrahydropyrimidin-1-yl]phenoxy}-5-methylpyrazole]
completely controlled: growth of velvetleaf (herbicidal activity) [1] | growth of ivyleaf morningglory (herbicidal activity) [2] | growth of velvetleaf (herbicidal activity) [3] | growth of ivyleaf morningglory (herbicidal activity) [4]

COC(=O)C(C)Oc1cc(Oc2cc(-n3c(=O)cc(C(F)(F)F)n(C)c3=O)c(F)cc2Cl)ncn1 (stereo not drawn) [Compound 3-12, methyl 2-([4-{2-chloro-4-fluoro-5-[3-methyl-2,6-dioxo-4-(trifluoromethyl)-1,2,3,6-tetrahydropyrimidin-1-yl]phenoxy}pyrimidin-6-yl]oxy)propionate]
completely controlled: growth of velvetleaf (herbicidal activity) [1] | growth of ivyleaf morningglory (herbicidal activity) [2] | growth of velvetleaf (herbicidal activity) [3] | growth of ivyleaf morningglory (herbicidal activity) [4]

COC(=O)COc1nc(C)ncc1Oc1cc(-n2c(=O)cc(C(F)(F)F)n(C)c2=O)c(F)cc1Cl [Compound 4-85, 5-{2-chloro-4-fluoro-5-[3-methyl-2,6-dioxo-4-(trifluoromethyl)-1,2,3,6-tetrahydropyrimidin-1-yl]phenoxy}-4-(methoxycarbonyl)methoxy-2-methylpyrimidine]
completely controlled: growth of velvetleaf (herbicidal activity) [1] | growth of ivyleaf morningglory (herbicidal activity) [2] | growth of velvetleaf (herbicidal activity) [3] | growth of ivyleaf morningglory (herbicidal activity) [4]

CCOC(=O)COc1ncccc1Oc1cc(-n2c(=O)cc(C(F)(F)F)n(C)c2=O)c(F)cc1Cl [Compound 7-8, 3-{2-chloro-4-fluoro-5-[3-methyl-2,6-dioxo-4-(trifluoromethyl)-1,2,3,6-tetrahydropyrimidin-1-yl]phenoxy}-2-(ethoxycarbonyl)methoxypyridine]
completely controlled: growth of velvetleaf (herbicidal activity) [1] | growth of ivyleaf morningglory (herbicidal activity) [2] | growth of velvetleaf (herbicidal activity) [3] | growth of ivyleaf morningglory (herbicidal activity) [4]

CONC(=O)COc1ncccc1Oc1cc(-n2c(=O)cc(C(F)(F)F)n(C)c2=O)c(F)cc1Cl [Compound 7-84, 3-{2-chloro-4-fluoro-5-[3-methyl-2,6-dioxo-4-(trifluoromethyl)-1,2,3,6-tetrahydropyrimidin-1-yl]phenoxy}-2-[(methoxyaminocarbonyl)methoxy]pyridine]
completely controlled: growth of velvetleaf (herbicidal activity) [1] | growth of ivyleaf morningglory (herbicidal activity) [2] | growth of velvetleaf (herbicidal activity) [3] | growth of ivyleaf morningglory (herbicidal activity) [4]

COC(=O)[C@@H](C)Oc1n[nH]c(C)c1Oc1cc(-n2c(=O)cc(C(F)(F)F)n(C)c2=O)c(F)cc1Cl [Compound 5-12-R, (R)-3-{1-(methoxycarbonyl)ethoxy}-4-{2-chloro-4-fluoro-5-[3-methyl-2,6-dioxo-4-(trifluoromethyl)-1,2,3,6-tetrahydropyrimidin-1-yl]phenoxy}-5-methylpyrazole]
completely controlled: growth of velvetleaf (herbicidal activity) [1] | growth of ivyleaf morningglory (herbicidal activity) [2] | growth of velvetleaf (herbicidal activity) [3] | growth of ivyleaf morningglory (herbicidal activity) [4]

Cn1c(C(F)(F)F)cc(=O)n(-c2cc(Oc3cccnc3OCC(=O)O)c(Cl)cc2F)c1=O [Compound 7-6, 3-{2-chloro-4-fluoro-5-[3-methyl-2,6-dioxo-4-(trifluoromethyl)-1,2,3,6-tetrahydropyrimidin-1-yl]phenoxy}-2-carboxymethoxypyridine]
completely controlled: growth of velvetleaf (herbicidal activity) [1] | growth of ivyleaf morningglory (herbicidal activity) [2] | growth of velvetleaf (herbicidal activity) [3] | growth of ivyleaf morningglory (herbicidal activity) [4]

COC(=O)C(C)Oc1ncccc1Oc1cc(-n2c(=O)cc(C(F)(F)F)n(C)c2=O)c(F)cc1Cl (stereo not drawn) [Compound 7-2, 3-{2-chloro-4-fluoro-5-[3-methyl-2,6-dioxo-4-(trifluoromethyl)-1,2,3,6-tetrahydropyrimidin-1-yl]phenoxy}-2-{1-(methoxycarbonyl)ethoxy} pyridine]
completely controlled: growth of velvetleaf (herbicidal activity) [1] | growth of ivyleaf morningglory (herbicidal activity) [2] | growth of velvetleaf (herbicidal activity) [3] | growth of ivyleaf morningglory (herbicidal activity) [4]

COC(=O)C(C)Oc1nccc(Oc2cc(-n3c(=O)cc(C(F)(F)F)n(C)c3=O)c(F)cc2Cl)n1 (stereo not drawn) [Compound 3-2, methyl 2-([4-{2-chloro-4-fluoro-5-[3-methyl-2,6-dioxo-4-(trifluoromethyl)-1,2,3,6-tetrahydropyrimidin-1-yl]phenoxy}pyrimidin-2-yl]oxy)propionate]
completely controlled: growth of velvetleaf (herbicidal activity) [1] | growth of ivyleaf morningglory (herbicidal activity) [2] | growth of velvetleaf (herbicidal activity) [3] | growth of ivyleaf morningglory (herbicidal activity) [4]

COC(=O)COc1ncccc1Oc1cc(-n2c(=O)cc(C(F)(F)F)n(C)c2=O)c(F)cc1[N+](=O)[O-] [Compound 9-45, 3-{4-fluoro-5-[3-methyl-2,6-dioxo-4-(trifluoromethyl)-1,2,3,6-tetrahydropyrimidin-1-yl]-2-nitrophenoxy}-2-(methoxycarbonyl)methoxypyridine]
completely controlled: growth of velvetleaf (herbicidal activity) [1] | growth of ivyleaf morningglory (herbicidal activity) [2] | growth of velvetleaf (herbicidal activity) [3] | growth of ivyleaf morningglory (herbicidal activity) [4]

COC(=O)COC(=O)COc1ncccc1Oc1cc(-n2c(=O)cc(C(F)(F)F)n(C)c2=O)c(F)cc1Cl [Compound 7-119, 3-{2-chloro-4-fluoro-5-[3-methyl-2,6-dioxo-4-(trifluoromethyl)-1,2,3,6-tetrahydropyrimidin-1-yl]phenoxy}-2-[(methoxycarbonyl)methoxycarbonylmethoxy]pyridine]
completely controlled: growth of velvetleaf (herbicidal activity) [1] | growth of ivyleaf morningglory (herbicidal activity) [2] | growth of velvetleaf (herbicidal activity) [3] | growth of ivyleaf morningglory (herbicidal activity) [4]

COC(=O)COc1cccc(Oc2cc(-n3c(=O)cc(C(F)(F)F)n(C)c3=O)c(F)cc2Cl)n1 [Compound 2-45, 2-{2-chloro-4-fluoro-5-[3-methyl-2,6-dioxo-4-(trifluoromethyl)-1,2,3,6-tetrahydropyrimidin-1-yl]phenoxy}-6-(methoxycarbonyl)methoxypyridine]
completely controlled: growth of velvetleaf (herbicidal activity) [1] | growth of ivyleaf morningglory (herbicidal activity) [2] | growth of velvetleaf (herbicidal activity) [3] | growth of ivyleaf morningglory (herbicidal activity) [4]

COC(=O)COc1n[nH]c(C)c1Oc1cc(-n2c(=O)cc(C(F)(F)F)n(C)c2=O)c(F)cc1Cl [Compound 5-17, 3-(methoxycarbonyl)methoxy-4-{2-chloro-4-fluoro-5-[3-methyl-2,6-dioxo-4-(trifluoromethyl)-1,2,3,6-tetrahydropyrimidin-1-yl]phenoxy}-5-methylpyrazole]
completely controlled: growth of velvetleaf (herbicidal activity) [1] | growth of ivyleaf morningglory (herbicidal activity) [2] | growth of velvetleaf (herbicidal activity) [3] | growth of ivyleaf morningglory (herbicidal activity) [4]

COC(=O)C(C)Oc1ccc(Oc2cc(-n3c(=O)cc(C(F)(F)F)n(C)c3=O)c(F)cc2Cl)cn1 (stereo not drawn) [Compound 7-12, 5-{2-chloro-4-fluoro-5-[3-methyl-2,6-dioxo-4-(trifluoromethyl)-1,2,3,6-tetrahydropyrimidin-1-yl]phenoxy}-2-{1-(methoxycarbonyl)ethoxy}pyridine]
completely controlled: growth of velvetleaf (herbicidal activity) [1] | growth of ivyleaf morningglory (herbicidal activity) [2] | growth of velvetleaf (herbicidal activity) [3] | growth of ivyleaf morningglory (herbicidal activity) [4]
